According to paper PMC10497682, “Synthesis and cytotoxicity evaluation of novel 1,8-acridinedione derivatives bearing phthalimide moiety as potential antitumor agents” (Scientific Reports, 2023):
Values after ≈ are worked out from the molar mass of the structure shown.

Legend:
Format in all cases: cell-based
lung cancer cells (H460) = assay: MTT cytotoxicity assay, H460; settings: for selectivity index (SI): mean IC50 against normal cells (HSF) divided by IC50 against H460
Method: (§1) The cell lines were obtained from American Type Culture Collection (ATCC). With the usage of the Thiazolyl Blue Tetrazolium Bromide (MTT) method, various concentrations of the compounds (8c, 8f, 8h, 8i, and 8L) were evaluated for their cytotoxicity against the HSF, H460, A431, A549, and MDA-MB-231 cell lines. In brief HSF, H460, A431, A549 and MDA-MB-231 cell lines cells (10 × 10^3) were cultured in 96 well plate for overnight at 37 °C, 5% CO2 and 88% humidity. The total volume of used DMEM supplemented medium and the synthesized compounds supernatant was 200 µL with final concentrations of 25, 50, 100, 150 and 200 µg/ml. The plate was incubated at 37 °C, 5% CO2 for 48 h. After incubation, debris and dead cells were removed by washing three times with fresh medium. Twenty mL of MTT solution (5 mg/ml of MTT in PBS buffer) was added to each well and shook for 5 min at 150 rpm to thoroughly mix the MTT into the media. The cells were incubated at 37 °C and 5% CO2 for 3–5 h to metabolize MTT by viable cells. 200 µL dimethyl sulfoxide (DMSO) was added to each well and shook again for 5 min at 150 rpm, and then the viability of the cells was calculated by measuring the optical density at 630 nm subtracted from optical density at 570 nm. The relative cell viability (%) was determined as the given formula: Therelativecellviability%=ODS/ODC×100 whereas ODS is the mean optical density of sample, ODC is the mean OD of control group. […] Tumor-selectivity index (TS value) was determined by dividing the mean IC50 against normal cells by the mean IC50 against tumor cells. Thus obtained TS values seem to reflect the in vivo antitumor activity even though these cells were different types of cells (epithelial oral squamous cell carcinoma cell lines versus mesenchymal normal oral cells).

skin cancer cells (A431) = assay: MTT cytotoxicity assay, A431; settings: for selectivity index (SI): mean IC50 against normal cells (HSF) divided by IC50 against A431
Method: as §1

TOP2B = assay: qRT-PCR mRNA expression of TOP2B in A431 cells; settings: IC50 concentration, 2 days, fold vs untreated control
Method: (§2) In this study, the impact of potent antitumor compounds (8c, 8f, 8h, 8i, and 8L) on the expression levels of four tumor regulating genes, namely Topoisomerase II beta (TOP2B), mitogen-activated protein kinase (MAP K) (p38), tumor protein interacted with the mouse double minute 2 homolog (p53), and Epidermal growth factor receptor (EGFR), was investigated in skin cancer cells (A431). Evaluation the relative changes in mRNA expression levels of four key genes by performing quantitative real-time PCR (qRT-PCR) before and after treatment for 2 days with IC50 concentrations of compounds (8c, 8f, 8h, 8i, and 8L). Total RNA was extracted from the cells using the Gene JET RNA Purification Kit (Thermo Scientific, USA), followed by cDNA synthesis using the cDNA Synthesis Kit (Thermo Scientific, USA) protocol. SYBR green kit and specific primers (Forward/Reverse) were used for qRT-PCR: 5′-[…]-3’/5’-[…]-3′ for p38, 5′-[…]-3′/5′-[…]-3′ for p53, 5’-[…]-3’/5’-[…]-3’ for TOP2B, and 5’-[…]-3’/5’-[…]-3’ for EGFR. The expression levels of the tested genes were determined by using the 2^−ΔΔCT equation to assess any changes in upregulation and/or downregulation of gene expression.

EGFR = assay: qRT-PCR mRNA expression of EGFR in A431 cells; settings: IC50 concentration, 2 days, fold vs untreated control
Method: as §2

H460 cells = assay: Morphological modifications under phase-contrast microscope, H460; settings: IC50 dose, 48 h, vs untreated control
Method: (§3) The present study aimed to investigate the in vitro effects of five synthetic compounds (8c, 8f, 8h, 8i, and 8L) on the morphological modifications of four different cancer cell lines (A431, A549, H460, and MDA-MB-231) compared with untreated control cells (Fig. 5). The cells were treated with the compounds at IC50 doses for 48 h, and the morphological changes were observed under a phase-contrast microscope.
(§4) All cells were treated with compounds (8c, 8f, 8h, 8i and 8L) at IC50 doses for 48 h as compared to untreated control cells.
(§5) The cell lines were obtained from American Type Culture Collection (ATCC). With the usage of the Thiazolyl Blue Tetrazolium Bromide (MTT) method, various concentrations of the compounds (8c, 8f, 8h, 8i, and 8L) were evaluated for their cytotoxicity against the HSF, H460, A431, A549, and MDA-MB-231 cell lines. […] 200 µL dimethyl sulfoxide (DMSO) was added to each well and shook again for 5 min at 150 rpm, and then the viability of the cells was calculated by measuring the optical density at 630 nm subtracted from optical density at 570 nm. The relative cell viability (%) was determined as the given formula: Therelativecellviability%=ODS/ODC×100 whereas ODS is the mean optical density of sample, ODC is the mean OD of control group. […]

A549 cells = assay: Morphological modifications under phase-contrast microscope, A549; settings: IC50 dose, 48 h, vs untreated control
Method: as §3, §4, §5

lung cancer cells (A549) = assay: MTT cytotoxicity assay, A549
Method: as §1, with “Twenty mL of MTT solution (5 mg/ml of MTT in PBS buffer) was added to each well and shook for 5 min at 150 rpm to thoroughly mix the MTT into the media. The cells were incubated at 37 °C and 5% CO2 for 3–5 h to metabolize MTT by viable cells.” left out, “Thus obtained TS values seem to reflect the in vivo antitumor activity even though these cells were different types of cells (epithelial oral squamous cell carcinoma cell lines versus mesenchymal normal oral cells).” left out

A431 cells = assay: Morphological modifications under phase-contrast microscope, A431; settings: IC50 dose, 48 h, vs untreated control
Method: as §3, §4, §5

MDA-MB-231 cells = assay: Morphological modifications under phase-contrast microscope, MDA-MB-231; settings: IC50 dose, 48 h, vs untreated control
Method: as §3, §4, §5

p53 = assay: qRT-PCR mRNA expression of p53 in A431 cells; settings: IC50 concentration, 2 days, fold vs untreated control
Method: as §2

p38 = assay: qRT-PCR mRNA expression of p38 in A431 cells; settings: IC50 concentration, 2 days, fold vs untreated control
Method: as §2

[1] = test system: breast cancer cells (MDA-MB-231); assay: MTT cytotoxicity assay, MDA-MB-231
Method: as §1, with “Twenty mL of MTT solution (5 mg/ml of MTT in PBS buffer) was added to each well and shook for 5 min at 150 rpm to thoroughly mix the MTT into the media. The cells were incubated at 37 °C and 5% CO2 for 3–5 h to metabolize MTT by viable cells.” left out, “Thus obtained TS values seem to reflect the in vivo antitumor activity even though these cells were different types of cells (epithelial oral squamous cell carcinoma cell lines versus mesenchymal normal oral cells).” left out

SMILES | selectivity index (SI) (lung cancer cells (H460)) | selectivity index (SI) (skin cancer cells (A431)) | relative change in mRNA expression level of TOP2B (TOP2B) | relative change in mRNA expression level of EGFR (EGFR) | morphological modifications (H460 cells) | morphological modifications (A549 cells) | morphological modifications (A431 cells) | morphological modifications (MDA-MB-231 cells) | other results
COc1ccc(C2C3=C(CC(C)(C)CC3=O)N(CCOC(=O)CN3C(=O)c4ccccc4C3=O)C3=C2C(=O)CC(C)(C)C3)cc1OC [Compound 8h, 2-(9-(3,4-dimethoxyphenyl)-3,3,6,6-tetramethyl-1,8-dioxo-2,3,4,5,6,7,8,9-octahydroacridin-10(1H)-yl) ethyl 2-(1,3-dioxoisoindolin-2-yl) acetate] | 3.5 | 4.5 | lowest relative change | lowest relative change |  |  |  |  | 
CC1(C)CC(=O)C2=C(C1)N(CCOC(=O)CN1C(=O)c3ccccc3C1=O)C1=C(C(=O)CC(C)(C)C1)C2c1ccc(F)cc1 [Compound 8c, 2-(9-(4-fluorophenyl)-3,3,6,6-tetramethyl-1,8-dioxo-2,3,4,5,6,7,8,9-octahydroacridin-10(1H)-yl) ethyl 2-(1,3-dioxoisoindolin-2-yl) acetate] |  |  |  |  | noticeable cell damage and alterations in the morphology | significant cell damage and alterations in the morphology |  |  | 
COc1ccc(C2C3=C(CC(C)(C)CC3=O)N(CCOC(=O)CN3C(=O)c4ccccc4C3=O)C3=C2C(=O)CC(C)(C)C3)cc1 [Compound 8i, 2-(9-(4-methoxyphenyl)-3,3,6,6-tetramethyl-1,8-dioxo-2,3,4,5,6,7,8,9-octahydroacridin-10(1H)-yl) ethyl 2-(1,3-dioxoisoindolin-2-yl) acetate] |  |  |  |  |  |  | significant cell damage and alteration in the morphology |  | IC50 (lung cancer cells (A549); Homo sapiens, A549 cells, MTT, 48 h, mean ± SEM): 37.4 ± 4.5 µg/mL; selectivity index (SI) (lung cancer cells (A549); mean IC50 against normal cells (HSF) divided by IC50 against A549): 4.0
CC1(C)CC(=O)C2=C(C1)N(CCOC(=O)CN1C(=O)c3ccccc3C1=O)C1=C(C(=O)CC(C)(C)C1)C2c1ccc(-c2ccccc2)cc1 [Compound 8f, 2-(9-([1,1'-biphenyl]-4-yl)-3,3,6,6-tetramethyl-1,8-dioxo-2,3,4,5,6,7,8,9-octahydroacridin-10(1H)-yl) ethyl 2-(1,3-dioxoisoindolin-2-yl) acetate] | 7.7 | 15.9 | lowest relative change | lowest relative change | noticeable cell damage and alterations in the morphology | significant cell damage and alterations in the morphology | significant cell damage and alteration in the morphology | significant cell damage and alterations in cell morphology | IC50 (lung cancer cells (H460); Homo sapiens, NCI-H460, H460 cells, MTT, 48 h, mean ± SEM): 24.6 ± 3.4 µg/mL; IC50 (skin cancer cells (A431); Homo sapiens, A-431, A431 cells, MTT, 48 h, mean ± SEM): 11.9 ± 3.3 µg/mL; relative change in mRNA expression level of p53 (p53): highest relative change; relative change in mRNA expression level of p38 (p38): highest relative change
CC1(C)CC(=O)C2=C(C1)N(CCOC(=O)CN1C(=O)c3ccccc3C1=O)C1=C(C(=O)CC(C)(C)C1)C2c1ccc2c(c1)OCO2 [Compound 8L, 2-(9-(benzo[d][1,3]dioxol-5-yl)-3,3,6,6-tetramethyl-1,8-dioxo-2,3,4,5,6,7,8,9-octahydroacridin-10(1H)-yl)ethyl 2-(1,3-dioxoisoindolin-2-yl)acetate] |  |  |  |  |  |  |  | significant cell damage and alterations in cell morphology | IC50 ([1]; Homo sapiens, MDA-MB-231 cells, MTT, 48 h, mean ± SEM): 27.7 ± 2.7 µg/mL (≈ 44.3 µM); selectivity index (SI) ([1]; mean IC50 against normal cells (HSF) divided by IC50 against MDA-MB-231): 4.4
